Experimental data: US20090148426A1, “COMPOSITION FOR LIFE EXTENSION AND METHOD OF EXTENDING THE LIFE” (priority 2005, published 2009)

Key:
[1] = test system: senescence-accelerated model mice (SAMP8); experiment: Life extending effect for a senescence-accelerated model mouse (survival rate); type: in vivo; conditions: for Survival Rate (%): SAMP8 male mice, feedstuff containing 0.4% (about 300 to 500 mg/kg/day), 13th month after start of test, Kaplan-Meier, n=8 to 10; for Extension of a life span (in words): SAMP8 mice, ingestion with feedstuff containing 0.4%
From the text: In order to evaluate these life extension effects, a special senescence-accelerated model mouse (for example, SAMP8), which has a shorter lifetime than a common mouse, may be used as a model for evaluations in vivo, for example. […] This mouse is very useful model for evaluating effects over a life span. The aging states shown in this mouse extremely resembles the aging states of humans, and is also useful to evaluate the health condition of humans in a senectitude.
(§1) Three groups were set as follows. One is a group, to which feedstuff (CE-2, a product of CLEA Japan, Inc.) containing 0.4% of reduced coenzyme Q10 produced in Production Example 1 (containing about 1% by weight of oxidized coenzyme Q10) was given. Another group is a group, to which feedstuff (CE-2, a product of CLEA Japan, Inc.) containing 0.4% of commercially-available oxidized coenzyme Q10 (100% oxidized coenzyme Q10, a product of Kaneka Corporation) was given. The rest is a control group, to which only basic feedstuff (CE-2, a product of CLEA Japan, Inc.) was given. Each group consisted of 8 to 10 senescence-accelerated model mice (SAMP8, 3-week old, male). Each group was allowed free access to the feedstuff. During the test period, measurements of motor activities and recording of the number of dead mice were periodically performed. The dose of reduced and oxidized coenzyme Q10 as estimated from the feed consumption and animal body weight corresponded to about 300 to 500 mg/kg/day.
(§2) Results are illustrated in Tables 1 and 2. Table 1 illustrates the survival rates in the control group, the reduced coenzyme Q10-ingested group, and the oxidized coenzyme Q10-ingested group at the 13th month after the start of the test. Each data consists of n=8 to 10. The survival rate was assayed by the Kaplan-Meier method. The symbol “*” expresses that there is a significant difference relative to the control group at the degree of risk of 5%. Table 2 illustrates averages of motor activities (measuring apparatus: SUPERMEX, a product of Muromachi machinery) over a period from 16 o'clock to 9 o'clock in the morning of next day, and the relative proportions to the control group, estimated by assuming the level of the control group as 100. The data illustrated in Table 2 are values for each of the control group, the reduced coenzyme Q10-ingested group, and the oxidized coenzyme Q10-ingested group at the 11th month after the start of the test. Each data consist of n=4 to 7, and significant difference was tested by t-test.

[2] = test system: senescence-accelerated model mice (SAMP8); experiment: Motor activities of senescence-accelerated model mice (SUPERMEX); type: in vivo, mouse; conditions: for Motor activities (Count) / Motor activities, relative proportion to the control group (control = 100): feedstuff containing 0.4%, 11th month after start of test; for Motor activities (Count): average from 16 o'clock to 9 o'clock next morning, n=4 to 7; for Motor activities, relative proportion to the control group (control = 100): control group level taken as 100; for Inhibition of deterioration of the motor activity (in words): ingestion with feedstuff containing 0.4%
From the text: as §1, §2

rats [3] = conditions: every day over 52 weeks at 1,200 mg/kg/day; cited from earlier work
rats [4] = conditions: rats bred with unsaturated fatty acid-enriched feed; cited from earlier work
mice = conditions: cited from earlier work

Row | Compound | Survival Rate (%) [1] | Extension of a life span (in words) [1] | Motor activities (Count) [2] | Motor activities, relative proportion to the control group (control = 100) [2] | Inhibition of deterioration of the motor activity (in words) [2] | Toxic effect in chronic toxicity test (rats [3]) | Effect on life span of rats (rats [4]) | Effect on life span of mice (mice)
1 | COC1=C(OC)C(=O)C(C/C=C(\C)CC/C=C(\C)CC/C=C(\C)CC/C=C(\C)CC/C=C(\C)CC/C=C(\C)CC/C=C(\C)CC/C=C(\C)CC/C=C(\C)CCC=C(C)C)=C(C)C1=O [Oxidized coenzyme Q10, oxidized coenzyme Q10] | 40% | slightly improved | 12754 Count | (119) | slightly improved | – | – | –
2 | COc1c(O)c(C)c(C/C=C(\C)CC/C=C(\C)CC/C=C(\C)CC/C=C(\C)CC/C=C(\C)CC/C=C(\C)CC/C=C(\C)CC/C=C(\C)CC/C=C(\C)CCC=C(C)C)c(O)c1OC [Reduced coenzyme Q10, reduced coenzyme Q10] | 75% | remarkable extension of a life span | 17520 Count | (163) | inhibition of deterioration of the motor activity | – | – | –
3 | COC1=C(OC)C(=O)C(C/C=C(\C)CC/C=C(\C)CC/C=C(\C)CC/C=C(\C)CC/C=C(\C)CC/C=C(\C)CC/C=C(\C)CC/C=C(\C)CC/C=C(\C)CCC=C(C)C)=C(C)C1=O [coenzyme Q10] | – | – | – | – | – | no toxic effect was observed | – | –
4 | ubiquinone | – | – | – | – | – | – | extended the life span of the rat | did not affect the life span of mice
